Data as given in publication PMC7501730, “Discovery of novel small molecule inhibitors of S100P with in vitro anti-metastatic effects on pancreatic cancer cells” (European Journal of Medicinal Chemistry, 2020).
Like-named read-outs stand apart in the source and are kept apart here.

Experiments:
S100P-RAGE interaction = molecular target: T1, S100P-RAGE interaction (Homo sapiens, UniProt P25815); assay: ELISA of S100P-RAGE binding inhibition; conditions: for ELISA inhibition: concentration with significant inhibition of S100P-RAGE binding, asterisks = significance by one-way ANOVA
T1 construct: His tag (N); made in house; host or cells: Escherichia coli BL21*
T1 sequence (P25815 1-95): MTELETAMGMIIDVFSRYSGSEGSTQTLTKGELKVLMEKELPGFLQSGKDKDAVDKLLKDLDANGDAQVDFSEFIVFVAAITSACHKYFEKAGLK
Method: The purchased computational screening hits were subjected to initial biological testing for inhibition of S100P-RAGE binding (ELISA), with cromolyn as positive control, using an adaptation of the reported ELISA for S100 family members.
Fig. 2 Effects of compounds 1–14 on S100P binding to RAGE. Human S100P (2 μM) coated wells were incubated with increasing concentrations of the compound tested, in triplicate, and exposed to human RAGE-Fc (100 nM) followed by goat anti-human secondary antibody to detect RAGE bound S100P. Data are compared to S100P/RAGE binding with no inhibitor (DMSO, 100%) and are presented as mean ± SEM; data is significant by one way ANOVA, where ∗ = p < 0.05, ∗∗ = p < 0.01 and ∗∗∗ = p < 0.001; n = 9 from 3 plates.
To generate human S100P recombinant protein, a pQE-30 ([…]) plasmid encoding S100P with N-terminal histidine tags (gifted by Dr Igor Barsukov, Liverpool University, UK), was transformed into BL21∗ competent Escherichia coli cells. Recombinant protein was purified using a HisTrap Nickel-nitrilotriacetic acid (Ni-NTA) agarose column (GE Healthcare, UK).
Purified recombinant S100P (2μM/well) in phosphate buffer (PBS; 137 mM NaCl, 2.7 mM KCl, 10 mM Na2HPO4, 1.8 mM KH2PO4, pH 7.4; supplemented with 1 mM CaCl2, 10 μM ZnCl2, and 0.5 mM MgCl2) was used for coating a 96 well plate (NunclonDelta, Fisher), and incubated overnight at 37 °C.
Following washing, S100P non-specific binding sites were blocked with 1% bovine serum albumin (BSA; Fisher, UK) in PBS for 2 h at 37 °C. Following three washes, S100P was incubated with increasing concentrations of compounds, in parallel to cromolyn and DMSO treated wells, all in triplicate. Then 30 nM recombinant human receptor for advanced glycation end products (rh/RAGE-Fc; R&D Systems) was added and incubated for 1 h at 37 °C. Controls included a negative control (S100P protein, no RAGE-Fc), a positive control (S100P protein plus RAGE), and vehicle control (0.001% DMSO in PBS) were included in each plate. After three washes in PBS, all wells were exposed to goat anti-human HRP conjugate (1:1000; Millipore) for 1 h at 37 °C in order to detect bound receptors. Subsequent to washes, wells were incubated for 20 min in the dark with 3,3′,5,5′-tetramethylbenzidene (TMB) substrate (Sigma, UK). Plates were read at 450 nm using a Multiskan Ascent spectrophotometer (Fisher Scientific, UK). All sample readings were normalized to the positive control (S100P plus RAGE-Fc). Statistical analysis was performed and graphs plotted using the GraphPad Prism software in the following way: One Way ANOVA was used to compare the effects of concentration of each compound to the effects of vehicle control (DMSO), and p values of <0.05 were considered statistically significant. A post hoc analysis was conducted using Dunnetts multiple comparisons test; results are indicated by ∗ = p < 0.05; ∗∗ = p < 0.01 and ∗∗∗ = p < 0.001.

[1] = Table 2, ELISA, analog series of hit 4, read-out: Estimated IC50
[2] = Table 1, ELISA, human S100P 2 μM coated wells, human RAGE-Fc, read-out: Estimated IC50

Compound | ELISA inhibition (S100P-RAGE interaction; Table 2) | further results
O=C1C2C3c4ccccc4C(c4ccccc43)C2C(=O)N1c1cccc(F)c1 (stereo not shown) [Compound 4o, 13-(3-fluorophenyl)-9,10-dihydro-9,10-[3,4]epipyrroloanthracene-12,14-dione] | 10 nM∗ | concentration with significant inhibition of S100P-RAGE binding (S100P-RAGE interaction; ELISA): ≤ 100 nM; IC50 (S100P-RAGE interaction; [1]): 1.3 nM; melting point: 228 to 230 °C
CC(C)(C)c1ccc(N2C(=O)C3C4c5ccccc5C([N+](=O)[O-])(c5ccccc54)C3C2=O)cc1 (stereo not shown) [Compound 4l, 13-(4-(tert-butyl)phenyl)-9-nitro-9,10-dihydro-9,10-[3,4]epipyrroloanthracene-12,14-dione] | - (no significant inhibition below 1 μM) | –
O=C1C2C3c4ccccc4C([N+](=O)[O-])(c4ccccc43)C2C(=O)N1c1ccc(F)cc1 (stereo not shown) [Compound 4h, 13-(4-fluorophenyl)-9-nitro-9,10-dihydro-9,10-[3,4]epipyrroloanthracene-12,14-dione] | – (no significant inhibition below 1 μM) | –
O=C(Cc1cc(O)n[nH]1)N/N=C/c1c(Cl)cccc1Cl [Compound 7] | – | IC50 (S100P-RAGE interaction; [2]): 19 nM
O=C1C2C3c4ccccc4C([N+](=O)[O-])(c4ccccc43)C2C(=O)N1c1ccc(Cl)cc1 (stereo not shown) [Compound 4i, 13-(4-chlorophenyl)-9-nitro-9,10-dihydro-9,10-[3,4]epipyrroloanthracene-12,14-dione] | – (no significant inhibition below 1 μM) | –
O=C1C2C3c4ccccc4C(c4ccccc43)C2C(=O)N1c1ccc(F)cc1 (stereo not shown) [Compound 4u, 13-(4-fluorophenyl)-9,10-dihydro-9,10-[3,4]epipyrroloanthracene-12,14-dione] | 10 nM∗ | concentration with significant inhibition of S100P-RAGE binding (S100P-RAGE interaction; ELISA): ≤ 100 nM; IC50 (S100P-RAGE interaction; [1]): 4.15 nM; melting point: 250 to 253 °C
CCOC(=O)c1cccc(N2C(=O)C3C4c5ccccc5C(c5ccccc54)C3C2=O)c1 (stereo not shown) [Compound 4n, Ethyl 3-(12,14-dioxo-9,10-dihydro-9,10-[3,4]epipyrroloanthracen-13-yl)benzoate] | – (no significant inhibition below 1 μM) | –
O=C1C2C3c4ccccc4C(c4ccccc43)C2C(=O)N1c1ccccc1 (stereo not shown) [Compound 4r, 13-Phenyl-9,10-dihydro-9,10-[3,4]epipyrroloanthracene-12,14-dione] | 10 nM∗ | concentration with significant inhibition of S100P-RAGE binding (S100P-RAGE interaction; ELISA): ≤ 100 nM; IC50 (S100P-RAGE interaction; [1]): 0.796 nM; melting point: 211 to 215 °C
O=C1C2C3c4ccccc4C([N+](=O)[O-])(c4ccccc43)C2C(=O)N1c1cccc(Cl)c1 (stereo not shown) [Compound 4c, 13-(3-chlorophenyl)-9-nitro-9,10-dihydro-9,10-[3,4]epipyrroloanthracene-12,14-dione] | – (no significant inhibition below 1 μM) | –
Cc1nc2sc3c(c2c2nc(C(=O)NCCOCCO)nn12)C[C@@H](C)CC3 [Compound 13] | – | IC50 (S100P-RAGE interaction; [2]): 126 nM
O=C1C2C3c4ccccc4C(c4ccccc43)C2C(=O)N1c1ccc(I)cc1 (stereo not shown) [Compound 4x, 13-(4-iodophenyl)-9,10-dihydro-9,10-[3,4]epipyrroloanthracene-12,14-dione] | – (no significant inhibition below 1 μM) | –
Nc1nnn(CC(=O)N/N=C/c2cccs2)n1 [Compound 9] | – | IC50 (S100P-RAGE interaction; [2]): 7.7 nM
CCOC(=O)c1ccc(N2C(=O)C3C4c5ccccc5C(c5ccccc54)C3C2=O)cc1 (stereo not shown) [Compound 4t, Ethyl 4-(12,14-dioxo-9,10-dihydro-9,10-[3,4]epipyrroloanthracen-13-yl)benzoate] | – (no significant inhibition below 1 μM) | –
O=C(O)c1cccc(N2C(=O)C3C4c5ccccc5C(c5ccccc54)C3C2=O)c1 (stereo not shown) [Compound 4m, 3-(12,14-Dioxo-9,10-dihydro-9,10-[3,4]epipyrroloanthracen-13-yl)benzoic acid] | – (no significant inhibition below 1 μM) | –
CC(C)(C)c1ccc(N2C(=O)C3C4c5ccccc5C(c5ccccc54)C3C2=O)cc1 (stereo not shown) [Compound 4y, 13-(4-(tert-butyl)phenyl)-9,10-dihydro-9,10-[3,4]epipyrroloanthracene-12,14-dione] | - (no significant inhibition below 1 μM) | –
O=C1C2C3c4ccccc4C(c4ccccc43)C2C(=O)N1c1cccc(Cl)c1 (stereo not shown) [Compound 4p, 13-(3-chlorophenyl)-9,10-dihydro-9,10-[3,4]epipyrroloanthracene-12,14-dione] | – (no significant inhibition below 1 μM) | –

Compound | ELISA inhibition (S100P-RAGE interaction; Table 2) | further results
COc1ccc(/C=C2/C(=O)NC(=O)N(c3ccc(Cl)c(Cl)c3)C2=O)cc1C(=O)O [Compound 3] | – | IC50 (S100P-RAGE interaction): 0.514 nM
O=C1C2C3c4ccccc4C([N+](=O)[O-])(c4ccccc43)C2C(=O)N1c1ccc(I)cc1 (stereo not shown) [Compound 4k, 13-(4-iodophenyl)-9-nitro-9,10-dihydro-9,10-[3,4]epipyrroloanthracene-12,14-dione] | – (no significant inhibition below 1 μM) | –
O=C1C2C3c4ccccc4C(c4ccccc43)C2C(=O)N1c1cccc([N+](=O)[O-])c1 (stereo not shown) [Compound 4q, 13-(3-nitrophenyl)-9,10-dihydro-9,10-[3,4]epipyrroloanthracene-12,14-dione] | – (no significant inhibition below 1 μM) | –
O=C(O)CNC(=O)CCCn1c(=O)[nH]c2ccccc2c1=O [Compound 10] | – | IC50 (S100P-RAGE interaction; [2]): 42.6 nM
N#CCCn1cc(C(=O)Nc2ccc(C(=O)O)cc2)c(-c2ccccc2)n1 [Compound 5] | – | IC50 (S100P-RAGE interaction; [2]): 0.6 nM
O=C1C2C3c4ccccc4C(c4ccccc43)C2C(=O)N1c1ccc(Cl)cc1 (stereo not shown) [Compound 4v, 13-(4-chlorophenyl)-9,10-dihydro-9,10-[3,4]epipyrroloanthracene-12,14-dione] | – (no significant inhibition below 1 μM) | –
O=C(O)c1ccc(N2C(=O)C3C4c5ccccc5C(c5ccccc54)C3C2=O)cc1 (stereo not shown) [Compound 4s, 4-(12,14-Dioxo-9,10-dihydro-9,10-[3,4]epipyrroloanthracen-13-yl)benzoic acid] | – (no significant inhibition below 1 μM) | –
CCCN1CCc2c(sc3c2c(NCCc2ccccc2)nc2nnnn23)C1 [Compound 14] | – | IC50 (S100P-RAGE interaction; [2]): 77 nM
O=C1C2C3c4ccccc4C([N+](=O)[O-])(c4ccccc43)C2C(=O)N1c1ccccc1 (stereo not shown) [Compound 4e, 9-Nitro-13-phenyl-9,10-dihydro-9,10-[3,4]epipyrroloanthracene-12,14-dione] | – (no significant inhibition below 1 μM) | –
O=C1C2C3c4ccccc4C(c4ccccc43)C2C(=O)N1c1ccc([N+](=O)[O-])cc1 (stereo not shown) [Compound 4w, 13-(4-nitrophenyl)-9,10-dihydro-9,10-[3,4]epipyrroloanthracene-12,14-dione] | – (no significant inhibition below 1 μM) | –
O=C1C2C3c4ccccc4C([N+](=O)[O-])(c4ccccc43)C2C(=O)N1c1cccc([N+](=O)[O-])c1 (stereo not shown) [Compound 4d, 9-Nitro-13-(3-nitrophenyl)-9,10-dihydro-9,10-[3,4]epipyrroloanthracene-12,14-dione] | – (no significant inhibition below 1 μM) | –
O=C1C2C3c4ccccc4C([N+](=O)[O-])(c4ccccc43)C2C(=O)N1c1ccc([N+](=O)[O-])cc1 (stereo not shown) [Compound 4j, 9-Nitro-13-(4-nitrophenyl)-9,10-dihydro-9,10-[3,4]epipyrroloanthracene-12,14-dione] | – (no significant inhibition below 1 μM) | –
COc1ccc(-c2noc(CCCC(=O)O)n2)cc1 [Compound 12] | – | IC50 (S100P-RAGE interaction; [2]): 264 nM
O=C(O)CCNC(=O)Cn1nnc2ccccc2c1=O [Compound 11] | – | IC50 (S100P-RAGE interaction; [2]): 6.89 nM
Cc1ccc(-c2ccc(=O)n(CC(=O)Nc3ccc(-n4cnnn4)cc3)n2)cc1 [Compound 6] | – | IC50 (S100P-RAGE interaction; [2]): 0.555 nM
